ChEMBL document CHEMBL1151218, “A new ursane triterpene from Monochaetum vulcanicum that inhibits DNA polymerase beta lyase” (J Nat Prod, 2004)

These compounds were tested against DNA polymerase beta (Homo sapiens, UniProt P06746) (assay: Inhibition of DNA polymerase beta lyase activity).

| SMILES | IC50 [µM] |
| --- | --- |
| C[C@H]1[C@H](C)CC[C@]2(C(=O)O)CC[C@]3(C)C(=CC[C@@H]4[C@@]5(C)CC[C@H](OC(=O)/C=C/c6ccc(O)cc6)C(C)(C)[C@@H]5CC[C@]43C)[C@H]12 | > 50 |
| CC(=O)O[C@H]1[C@H](O)C[C@]2(C)[C@H]3CC=C4[C@@H]5[C@@H](C)[C@H](C)CC[C@]5(C(=O)O)CC[C@@]4(C)[C@]3(C)CC[C@H]2C1(C)C | 21.5 |
| C[C@H]1[C@H](C)CC[C@]2(C(=O)O)CC[C@]3(C)C(=CC[C@@H]4[C@@]5(C)C[C@@H](O)[C@H](O)C(C)(C)[C@@H]5CC[C@]43C)[C@H]12 [COROSOLIC ACID] | 12.6 |
| CC[C@H](CC[C@@H](C)[C@H]1CC[C@H]2[C@@H]3CC=C4C[C@@H](O[C@@H]5O[C@H](CO)[C@@H](O)[C@H](O)[C@H]5O)CC[C@]4(C)[C@H]3CC[C@]12C)C(C)C [SITOGLUSIDE] | 26.5 |
| C[C@H]1[C@H](C)CC[C@]2(C(=O)O)CC[C@]3(C)C(=CC[C@@H]4[C@@]5(C)CC[C@H](O)C(C)(C)[C@@H]5CC[C@]43C)[C@H]12 [URSOLIC ACID] | 18.6 |
